This experiment relates to Ribosome. The experiment in a line: Inhibition of ribosome peptidyl transferase site in rabbit reticulocytes assessed as inhibition of translation using firefly luciferase DNA as template at 0.8 to 80 uM after 1 hr by luciferase assay. The experiment is classed as subcellular. Conditions: Oryctolagus cuniculus.

The source made the active and inactive calls. The calls are words filed in the database; no cut-off is given here.

Consider `CCN(CC)c1ccc2c(COC(=O)N3C[C@@H](O)[C@H](OC(C)=O)[C@@H]3Cc3ccc(OC)cc3)cc(=O)oc2c1`, for which the inhibition result is “Active”.
